{"source": "patent US9187413B2", "about": "“Peripherally restricted FAAH inhibitors” (The Regents of the University of California, priority 2010, dated 2015)", "key": {"FAAH [1]": {"biological_target": "T1, FAAH (Mus musculus (Mouse), UniProt O08914)", "T1 sequence (O08914 whole entry)": "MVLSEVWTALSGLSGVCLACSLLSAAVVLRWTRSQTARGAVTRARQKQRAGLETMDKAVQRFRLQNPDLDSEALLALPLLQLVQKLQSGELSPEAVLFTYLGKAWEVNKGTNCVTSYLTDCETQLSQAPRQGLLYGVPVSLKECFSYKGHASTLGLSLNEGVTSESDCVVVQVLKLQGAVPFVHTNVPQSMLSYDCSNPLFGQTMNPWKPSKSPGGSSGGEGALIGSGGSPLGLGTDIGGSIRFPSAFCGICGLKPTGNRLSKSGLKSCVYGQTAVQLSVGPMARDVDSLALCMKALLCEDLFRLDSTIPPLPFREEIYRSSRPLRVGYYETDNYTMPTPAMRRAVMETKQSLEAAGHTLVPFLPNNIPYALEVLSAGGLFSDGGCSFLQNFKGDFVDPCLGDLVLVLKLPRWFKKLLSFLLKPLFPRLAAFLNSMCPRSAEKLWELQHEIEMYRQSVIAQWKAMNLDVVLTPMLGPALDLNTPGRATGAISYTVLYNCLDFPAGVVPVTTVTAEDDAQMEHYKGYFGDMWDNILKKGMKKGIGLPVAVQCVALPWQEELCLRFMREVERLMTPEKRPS", "experiment": "FAAH inhibition ex vivo after systemic administration in mice", "conditions": "mouse, ip", "procedure": "Drug preparation for in vivo experiments Drugs were dissolved in polyethylene glycol 400/Tween-80/saline (1/1/18; by volume) and administered by i.p. (5-10 mL-kg^−1) or s.c. injection (10 mL-kg^−1)."}, "FAAH [2]": {"biological_target": "T1, FAAH", "experiment": "Tissue levels of anandamide, PEA and 2-AG by LC/MS", "type": "in vivo", "conditions": "mice, 1 mg-kg^-1, i.p.", "protocol": "Tissue analyses. We performed tissue extractions and liquid chromatography/mass spectrometry analyses of endocannabinoids as described^38.\nTissue extractions Mice were sacrificed with isoflurane and tissues were collected and immediately frozen in liquid nitrogen. Frozen tissues were weighed and homogenized in methanol (1 mL) containing [^2H4]-anandamide, [^2H4]-PEA, [^2H8]-2-AG, and N-cyclohexyl biphenyl-3-ylacetamide as internal standards. Analytes were extracted with chloroform (2 vol) and washed with water (1 vol). Organic phases were collected and dried under nitrogen. […] For other analyses the organic extract was fractionated by open-bed silica gel column chromatography, as described^43. Briefly, the extract was dissolved in chloroform and loaded onto small glass columns packed with Silica Gel G (60˜A 230-400 Mesh ASTM; Whatman, Clifton, N.J.). Anandamide, PEA and 2-AG were eluted with chloroform/methanol (9:1, vol/vol).\nMobile phase A consisted of methanol containing 0.25% acetic acid, 5 mM ammonium acetate; mobile phase B consisted of water containing 0.25% acetic acid, 5 mM ammonium acetate. […] Column temperature was kept at 40° C. […] Limit of quantification was 0.4 pmol."}}, "note": "Read-outs that look alike come from different tables or passages of the source.", "data": [{"smiles": "NC(=O)c1cccc(-c2cc(OC(=O)NC3CCCCC3)ccc2O)c1", "note": "[Compound 1b, cyclohexylcarbamic acid 3′-carbamoyl-6-hydroxybiphenyl-3-yl ester]", "values": [{"measurement": "inhibition at 1 mg/kg", "setting": "FAAH [1]; Mice, 1 mg/Kg i.p., Colon, read-out: % of FAAH inhibition, Colon", "result": "84.7 ± 0.3", "unit": "%"}, {"measurement": "inhibition at 1 mg/kg", "setting": "FAAH [1]; Mice, 1 mg/Kg i.p., Duodenum, read-out: % of FAAH inhibition, Duodenum", "result": "84.3 ± 1.4", "unit": "%"}, {"measurement": "inhibition at 1 mg/kg", "setting": "FAAH [1]; Mice, 1 mg/Kg i.p., Hypothalamus, read-out: % of FAAH inhibition, Hypothalamus", "result": "18.4 ± 13.8", "unit": "%"}, {"measurement": "inhibition at 1 mg/kg", "setting": "FAAH [1]; Mice, 1 mg/Kg i.p., Illeum, read-out: % of FAAH inhibition, Illeum", "result": "86.8 ± 2.4", "unit": "%"}, {"measurement": "inhibition at 1 mg/kg", "setting": "FAAH [1]; Mice, 1 mg/Kg i.p., Jejunum, read-out: % of FAAH inhibition, Jejunum", "result": "90 ± 1.4", "unit": "%"}, {"measurement": "inhibition at 1 mg/kg", "setting": "FAAH [1]; Mice, 1 mg/Kg i.p., Kidney, read-out: % of FAAH inhibition, Kidney", "result": "88.3 ± 1", "unit": "%"}, {"measurement": "inhibition at 1 mg/kg", "setting": "FAAH [1]; Mice, 1 mg/Kg i.p., Liver, read-out: % of FAAH inhibition, Liver", "result": "91.7 ± 0.7", "unit": "%"}, {"measurement": "inhibition at 1 mg/kg", "setting": "FAAH [1]; Mice, 1 mg/Kg i.p., Spinal cord, read-out: % of FAAH inhibition, Spinal cord", "result": "17.7 ± 10.6", "unit": "%"}, {"measurement": "inhibition at 1 mg/kg", "setting": "FAAH [1]; Mice, 1 mg/Kg i.p., Spleen, read-out: % of FAAH inhibition, Spleen", "result": "72.5 ± 0.7", "unit": "%"}, {"measurement": "inhibition at 1 mg/kg", "setting": "FAAH [1]; ex vivo 1 h after a single injection in mice (1 mg-kg^-1, i.p.), brain, read-out: FAAH Inhibition in brain (%)", "result": "-3 ± 8", "unit": "%"}, {"measurement": "anandamide levels", "setting": "FAAH [2]", "result": "increased anandamide levels in the periphery, not in forebrain or hypothalamus"}, {"measurement": "tissue levels of 2-AG in vivo", "setting": "FAAH [2]", "result": "did not alter"}]}]}
